Measured values as given in patent US8785655B2, “Ionic liquid solvents” (Dublin City University, priority 2009, dated 2014).

Tests used:
[1] = test system: Staphylococcus aureus H 5996/08 Methiciline-resistant; experiment: Screen against bacteria, MIC/IC80; type: cell-based; details: MRSA
[2] = test system: Aspergillus fumigatus 231; experiment: In vitro antifungal activity, MIC by microdilution (NCCLS M27-A); details: AF
[3] = test system: Staphylococcus aureus CCM 4516/08; experiment: Screen against bacteria, MIC/IC80; type: cell-based; details: SA
[4] = test system: Klebsiella pneumoniae J 14368/08 ESBL-positive; experiment: Screen against bacteria, MIC/IC80; type: cell-based; details: KP-E
[5] = test system: Candida parapsilosis ATCC 22019; experiment: In vitro antifungal activity, MIC by microdilution (NCCLS M27-A); details: CP
Description: (§1) In vitro antifungal activities of the compounds were evaluated on the collection of fungal strains deposited at the Department of Biological and Medical Sciences, Faculty of Pharmacy, Charles University, Czech Republic. All the isolates were maintained on Sabouraud dextrose agar prior to being tested.
(§2) Minimum inhibitory concentrations (MICs) were determined by the microdilution format of the NCCLS M27-A guidelines. […] RPMI 1640 (Sevapharma, Prague) medium supplemented with L-glutamine and buffered with 0.165 M morpholinepropanesulfonic acid to pH 7.0 was used as the test medium. The wells of the microdilution tray contained 100 μl of the RPMI 1640 medium with 2-fold serial dilutions of the compounds (1000 to 0.24 μmol/l for the new compounds) and 100 μl of inoculum suspension. Fungal inoculum in RPMI 1640 was prepared to give a final concentration of 5×103±0.2 cfu·ml-1. The trays were incubated at 35° C. and MICs were read visually for filamentous fungi and photometrically for yeasts as an optical density (OD) at 540 nm after 24 h and 48 h. The MICs were defined as 80% inhibition of the growth of control. MICs were determined twice and in duplicate. The deviations from the usually obtained were no higher than the nearest concentration value up and down the dilution scale.

Absidia corymbifera 272 = experiment: as above; details: AC
[6] = test system: Candida albicans ATCC 90028; experiment: as above
[7] = test system: Candida lusitaniae 2446/l; experiment: as above; details: CL
[8] = test system: Klebsiella pneumoniae D 11750/08; experiment: Screen against bacteria, MIC/IC80; type: cell-based; details: KP
[9] = test system: Staphylococcus epidermidis H 6966/08; experiment: Screen against bacteria, MIC/IC80; type: cell-based; details: SE
Candida krusei E28 = experiment: In vitro antifungal activity, MIC by microdilution (NCCLS M27-A)
Description: All the isolates were maintained on Sabouraud dextrose agar prior to being tested.
as §2

[10] = test system: Enterococcus sp. J 14365/08; experiment: Screen against bacteria, MIC/IC80; type: cell-based; details: EF
[11] = test system: Trichophyton mentagrophytes 445; experiment: In vitro antifungal activity, MIC by microdilution (NCCLS M27-A); details: TM
Candida krusei ATCC 6258 = experiment: as above
Escherichia coli CCM4517 = experiment: Screen against bacteria, MIC/IC80; type: cell-based; details: EC
Candida glabrata 20/l = experiment: In vitro antifungal activity, MIC by microdilution (NCCLS M27-A); details: CG
[12] = test system: Pseudomonas aeruginosa CCM 1961; experiment: Screen against bacteria, MIC/IC80; type: cell-based; details: PA
[13] = test system: Candida albicans ATCC 44859; experiment: In vitro antifungal activity, MIC by microdilution (NCCLS M27-A)
Description: as §1, §2

Candida tropicalis 156 = experiment: as above; details: CT

Measured: MIC/IC80

COC(=O)[C@@H](OC(=O)C[n+]1ccn(C)c1)c1ccccc1 [KG91, S-3-methyl-1-[1-(methoxycarbonyl)-1-phenylmethoxycarbonylmethyl]imidazolium bromide]
>1000 µM: [1]; 24 h | [1]; 48 h | [2]; 24 h | [2]; 48 h | [3]; 24 h | [3]; 48 h | [4]; 24 h | [4]; 48 h | [5]; 24 h | [5]; 48 h | Absidia corymbifera 272; 24 h | Absidia corymbifera 272; 48 h | [6]; CA2, 24 h | [6]; CA2, 48 h | [7]; 24 h | [7]; 48 h | [8]; 24 h | [8]; 48 h | [9]; 24 h | [9]; 48 h | Candida krusei E28; CK2, 24 h | Candida krusei E28; CK2, 48 h | [10]; 24 h | [10]; 48 h | [11]; 72 h | [11]; 120 h | Candida krusei ATCC 6258; CK1, 24 h | Candida krusei ATCC 6258; CK1, 48 h | Escherichia coli CCM4517; 24 h | Escherichia coli CCM4517; 48 h | Candida glabrata 20/l; 24 h | Candida glabrata 20/l; 48 h | [12]; 24 h | [12]; 48 h | [13]; CA1, 24 h | [13]; CA1, 48 h | Candida tropicalis 156; 24 h | Candida tropicalis 156; 48 h

CCCCCOC(=O)[C@@H](C)OC(=O)C[n+]1ccn(C)c1 [KG159, R-3-methyl-1-[1-(pentoxycarbonyl)-1-methylmethoxycarbonylmethyl]imidazolium bromide]
>1000 µM: [1]; 24 h | [1]; 48 h | [2]; 24 h | [2]; 48 h | [3]; 24 h | [3]; 48 h | [4]; 24 h | [4]; 48 h | [5]; 24 h | [5]; 48 h | Absidia corymbifera 272; 24 h | Absidia corymbifera 272; 48 h | [6]; CA2, 24 h | [6]; CA2, 48 h | [7]; 24 h | [7]; 48 h | [8]; 24 h | [8]; 48 h | [9]; 24 h | [9]; 48 h | Candida krusei E28; CK2, 24 h | Candida krusei E28; CK2, 48 h | [10]; 24 h | [10]; 48 h | [11]; 72 h | [11]; 120 h | Candida krusei ATCC 6258; CK1, 24 h | Candida krusei ATCC 6258; CK1, 48 h | Escherichia coli CCM4517; 24 h | Escherichia coli CCM4517; 48 h | Candida glabrata 20/l; 24 h | Candida glabrata 20/l; 48 h | [12]; 24 h | [12]; 48 h | [13]; CA1, 24 h | [13]; CA1, 48 h | Candida tropicalis 156; 24 h | Candida tropicalis 156; 48 h

CCOCCOC(=O)C(C)OC(=O)Cn1cc[n+](C)c1.[Br-] (stereo not drawn) [KG160, RS-3-methyl-1-[1-(ethoxyethoxycarbonyl)-1-methylmethoxycarbonylmethyl]imidazolium bromide]
>1000 µM: [1]; 24 h | [1]; 48 h | [2]; 24 h | [2]; 48 h | [3]; 24 h | [3]; 48 h | [4]; 24 h | [4]; 48 h | [5]; 24 h | [5]; 48 h | Absidia corymbifera 272; 24 h | Absidia corymbifera 272; 48 h | [6]; CA2, 24 h | [6]; CA2, 48 h | [7]; 24 h | [7]; 48 h | [8]; 24 h | [8]; 48 h | [9]; 24 h | [9]; 48 h | Candida krusei E28; CK2, 24 h | Candida krusei E28; CK2, 48 h | [10]; 24 h | [10]; 48 h | [11]; 72 h | [11]; 120 h | Candida krusei ATCC 6258; CK1, 24 h | Candida krusei ATCC 6258; CK1, 48 h | Escherichia coli CCM4517; 24 h | Escherichia coli CCM4517; 48 h | Candida glabrata 20/l; 24 h | Candida glabrata 20/l; 48 h | [12]; 24 h | [12]; 48 h | [13]; CA1, 24 h | [13]; CA1, 48 h | Candida tropicalis 156; 24 h | Candida tropicalis 156; 48 h
